The values below come from patent US8440653B2, “3-substituted-1,4-diazepan-2-one melanocortin-5 receptor antagonists” (Mimetica Pty Ltd, priority 2008, dated 2013).

Each structure is given as a SMILES string. Read-outs that look alike come from different tables or passages of the source.

The IC50 is the concentration that gives 50% inhibition. A word on the EC50: it is the concentration needed to bring the measured effect to its halfway point.

One experiment has as its target T1, rhesus monkey MC5R (Macaca mulatta, UniProt A0A5F8AEA9).
T1 construct: expressed in transfected cells
As to the kind of experiment: MC5R radioligand binding assay, other species: rhesus monkey MC5R membranes. The note with it: membranes of cells expressing cloned receptor. As to the method: (§1) Assays were performed in 96 well polypropylene plates. […] This was incubated for 1 hr at 37° C. […] Non-specific binding just under 5%.
(§2) Representative compounds of the present invention were tested for binding to MC5R from other species, as in described in Example 48, the results are listed in Table 4.

The next experiment has as its target T2, human MC5R (hMC5R) (Homo sapiens, UniProt P33032).
T2 construct: purchased Perkin Elmer RBXMC5M400UA
As to the kind of experiment: Human MC5R radioligand binding assay ([125I] NDP-MSH displacement). As to the method: Assessments of compound binding to human MC5R (hMC5R) by displacement of an ^125I-labeled NDP-MSH receptor ligand peptide were performed essentially as described in the data sheets produced by Perkin Elmer to accompany their frozen hMC5R membranes (Perkin Elmer catalog number RBXMC5M400UA).
Na^125I (0.5 mCi, 17.4 Ci/mg) was added to 50 μL sodium phosphate (50 mM, pH 7.4) in an eppendorf tube precoated with IODOGEN. After incubation for 10 mins the phosphate buffer containing the iodine was added to NDP-MSH (10 ul at 1 mg/mL) in a separate eppendorf tube. This was incubated for a further 10 mins. The iodinated NDP-MSH was purified by HPLC on a Zorbax SB 300 column using solvent A: 0.05% TFA and solvent B: 90% acetonitrile 0.045% TFA with a linear gradient, 0-67% B over 60 mins. The ^125I NDP-MSH eluted at 52 min after the unlabeled starting material (48 min) and was counted and stored in the freezer.
Incubation buffer: 25 mM HEPES-KOH (pH 7.0), 1.5 mM CaCl2, 1 mM MgSO4, 0.1 M NaCl, 1 mM 1,10-phenanthroline, and 1 Complete™ protease inhibitor tablet/100 mL (Roche, catalog number 1873580)
Perkin Elmer frozen hMC5 membranes: catalog number RBXMC5M400UA, 0.4 mL/vial; 400 microassays/vial. 0.78 mg/mL protein concentration
Vials of frozen membranes were thawed rapidly immediately before use, diluted with binding buffer and vortexed. Resuspended membranes were kept on ice until they were added to the wells of the plate.
as §1
Representative compounds of the present invention were tested for binding in the hMC5R assay as in Example 46, as listed in Table 3. The compounds were tested as their trifluoroacetate or hydrochloride salts, or as their free bases.

In another experiment the target is T3, human MC1R (Homo sapiens, UniProt Q01726).
T3 construct: expressed in transfected cells; host or cells: transfected mammalian cells, if the membranes were in-house
As to the kind of experiment: Human MC1R radioligand binding assay. The conditions noted are these: [125I] NDP-MSH. As to the method: as §1
(§3) Radioligand binding assays were carried out using commercial or in-house prepared hMC1R, hMC3R and hMC4R membranes and [^125I] NDP-MSH, as per hMC5R procedure in Example 46.
(§4) The homogenisation and ice incubation was repeated three times. The mixture was then centrifuged at 1260×g for 5 mins. […] This was centrifuged at 30,000×g for 90 mins at 4° C.

For another experiment, the target named is T4, human MC4R (Homo sapiens, UniProt P32245).
T4 construct: expressed in transfected cells; host or cells: transfected mammalian cells, if the membranes were in-house
As to the kind of experiment: Human MC4R radioligand binding assay. The conditions noted are these: [125I] NDP-MSH. As to the method: as §1, §3, §4

The next experiment deals with T5, mouse MC5R (Mus musculus, UniProt P41149).
T5 construct: purchased Euroscreen
As to the kind of experiment: MC5R radioligand binding assay, other species: mouse MC5R membranes. The note with it: membranes from Euroscreen; read-out: mouse MC5R (membrane) IC50. As to the method: as §1, §2

Experiment [1] concerns the target T6, human MC5R (Homo sapiens, UniProt P33032).
T6 construct: host or cells: HEK 293, transient transfection
As to the kind of experiment: cAMP assay (antagonism of alpha-MSH) in HEK 293 cells expressing human MC5R. The class given is cell-based. The conditions noted are these: HEK 293 cells transiently expressing MC5R; 10^−6 M alpha-MSH. As to the method: (§5) HEK 293 cells transiently expressing the melanocortin MC5 receptor were suspended in stimulation buffer (Hanks buffered saline solution (HBSS), 0.1% bovine serum albumin, protease inhibitors and 0.5 mM 3-Isobutyl-1-methylxanthine) at 4×10^6 cells/mL. 5 μl of cells, plus the compounds/peptides as described below, were added to wells of a 384-well plate as soon as possible after resuspension.
To detect antagonist activity, test compounds at varying concentrations were diluted in stimulation buffer at four times concentrate and 2.5 μl was added to wells containing cells. 2.5 μl of a four times required concentration of NDP-MSH or alpha-MSH was added to all wells containing compounds. […]
(§6) Basal level (of cAMP) control wells contained stimulation buffer only (no agonist or compounds). […] After incubation, 10 μl of lysis buffer (10% Tween 20, 1 M HEPES, 0.1% BSA, protease inhibitors, ddH2O) was added to all wells to be measured. […] 5 μl of diluted acceptor beads were added to each well to be measured, then the plate was incubated for 30 mins at room temperature, in the dark, with gentle shaking. […] Plates were read on an Envision plate reader (Perkin Elmer) after 1 hr and ˜16 hrs incubation. cAMP concentration in the cells was determined by the use of a ‘standard curve’ generated from the output of known cAMP concentrations as described below. […]
For orientation: Cyclic AMP is a second messenger, typically raised through Gs and lowered through Gi signalling.

The target in another experiment is T7, human MC3R (Homo sapiens, UniProt P41968).
T7 construct: expressed in transfected cells; host or cells: transfected mammalian cells, if the membranes were in-house
As to the kind of experiment: Human MC3R radioligand binding assay. The note with it: [125I] NDP-MSH. As to the method: as §1, §3, §4

For experiment [2], the target named is T6, human MC5R. As to the kind of experiment: cAMP stimulation assay (agonism) in HEK 293 cells expressing human MC5R. The class given is cell-based. The conditions noted are these: HEK 293 cells transiently expressing MC5R. As to the method:
as §5
To detect agonist activity, test compounds at varying concentrations were diluted in stimulation buffer at two times concentrate and 5 μl was added to wells containing cells. Positive control wells contained NDP-MSH or alpha-MSH alone (no compound) at two times concentrate
as §6

In the next experiment the test system is sebum excretion. The conditions noted are these: oral isotretinoin, after 8-12 weeks of therapy; cited from earlier work.
Where [3] appears, read: Table 5, hMCR binding selectivity, read-out: human MC5R IC50.
Where [4] appears, read: hMC5R membranes, [125I] NDP-MSH, tested as trifluoroacetate or hydrochloride salts or free bases, read-out: MC5R radioligand IC50.

T6 sequence (P33032 whole entry): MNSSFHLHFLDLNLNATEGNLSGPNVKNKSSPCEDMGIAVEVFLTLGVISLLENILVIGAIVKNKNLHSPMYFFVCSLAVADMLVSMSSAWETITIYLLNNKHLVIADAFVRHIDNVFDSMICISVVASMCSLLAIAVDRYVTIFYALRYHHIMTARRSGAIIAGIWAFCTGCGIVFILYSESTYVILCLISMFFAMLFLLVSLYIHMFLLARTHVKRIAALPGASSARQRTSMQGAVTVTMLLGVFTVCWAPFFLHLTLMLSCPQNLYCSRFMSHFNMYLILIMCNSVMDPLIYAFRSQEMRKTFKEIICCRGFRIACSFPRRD
T2 sequence (P33032 whole entry): as above
T4 sequence (P32245 whole entry): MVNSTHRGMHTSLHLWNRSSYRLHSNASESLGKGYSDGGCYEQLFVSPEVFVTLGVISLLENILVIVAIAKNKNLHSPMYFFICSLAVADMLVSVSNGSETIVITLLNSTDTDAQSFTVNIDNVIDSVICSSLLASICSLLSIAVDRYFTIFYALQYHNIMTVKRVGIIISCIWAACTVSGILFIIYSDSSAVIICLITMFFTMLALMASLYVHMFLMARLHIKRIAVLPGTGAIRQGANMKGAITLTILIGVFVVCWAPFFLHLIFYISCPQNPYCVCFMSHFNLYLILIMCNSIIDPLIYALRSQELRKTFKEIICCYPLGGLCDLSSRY
T3 sequence (Q01726 whole entry): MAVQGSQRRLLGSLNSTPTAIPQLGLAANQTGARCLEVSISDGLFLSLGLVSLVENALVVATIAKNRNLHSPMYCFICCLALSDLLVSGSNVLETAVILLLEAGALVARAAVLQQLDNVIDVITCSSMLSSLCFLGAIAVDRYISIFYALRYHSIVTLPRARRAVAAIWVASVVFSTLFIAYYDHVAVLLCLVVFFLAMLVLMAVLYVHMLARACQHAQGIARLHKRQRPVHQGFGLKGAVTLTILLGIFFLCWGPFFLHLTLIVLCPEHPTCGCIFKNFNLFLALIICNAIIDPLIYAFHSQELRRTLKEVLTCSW
T7 sequence (P41968 whole entry): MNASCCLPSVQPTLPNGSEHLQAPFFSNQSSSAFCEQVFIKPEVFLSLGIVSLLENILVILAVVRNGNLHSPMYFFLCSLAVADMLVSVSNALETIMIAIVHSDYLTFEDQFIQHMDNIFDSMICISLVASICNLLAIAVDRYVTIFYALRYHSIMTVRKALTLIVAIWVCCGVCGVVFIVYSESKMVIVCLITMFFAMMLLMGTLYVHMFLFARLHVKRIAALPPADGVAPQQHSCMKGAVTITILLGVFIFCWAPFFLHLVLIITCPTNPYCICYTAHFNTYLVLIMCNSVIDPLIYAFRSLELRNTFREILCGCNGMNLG
T1 sequence (A0A5F8AEA9 1-325): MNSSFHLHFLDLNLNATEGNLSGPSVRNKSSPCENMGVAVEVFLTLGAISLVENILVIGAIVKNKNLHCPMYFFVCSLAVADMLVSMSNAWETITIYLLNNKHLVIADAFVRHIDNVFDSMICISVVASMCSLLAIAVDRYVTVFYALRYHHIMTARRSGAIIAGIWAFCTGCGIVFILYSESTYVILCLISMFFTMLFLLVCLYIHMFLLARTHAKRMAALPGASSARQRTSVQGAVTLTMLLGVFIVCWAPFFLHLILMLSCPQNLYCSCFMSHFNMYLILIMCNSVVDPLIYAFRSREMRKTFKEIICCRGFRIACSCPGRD
T5 sequence (P41149 whole entry): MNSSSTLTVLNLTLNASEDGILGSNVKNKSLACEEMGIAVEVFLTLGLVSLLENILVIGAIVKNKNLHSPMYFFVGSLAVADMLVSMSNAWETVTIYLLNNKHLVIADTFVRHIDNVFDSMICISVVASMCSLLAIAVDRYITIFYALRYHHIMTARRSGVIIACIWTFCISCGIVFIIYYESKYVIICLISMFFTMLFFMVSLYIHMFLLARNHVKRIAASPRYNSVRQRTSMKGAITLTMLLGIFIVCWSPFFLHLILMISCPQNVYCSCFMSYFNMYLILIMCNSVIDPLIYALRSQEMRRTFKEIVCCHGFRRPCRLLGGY

Consider `CC[C@H](CN1CC[C@@H](CNC(=O)c2ccc3cc(Cl)ccc3c2)N[C@@H](CCC(C)C)C1=O)c1ccccc1` [Compound 17, 6-chloro-N-(((3S,5S)-3-isopentyl-2-oxo-1-((S)-2-phenylbutyl)-1,4-diazepan-5-yl)methyl)-2-naphthamide], for which the IC50 was 3.76 µM at rhesus monkey MC5R; 0.03 µM at human MC5R (hMC5R) (Table 4, membranes, read-out: human MC5R (membrane) IC50); 0.03 µM on human MC5R (hMC5R) (setting [3]); < 0.1 µM on human MC5R (hMC5R) (setting [4]); > 10 µM at human MC1R; > 10 µM at human MC4R. The IC50 on mouse MC5R came to 2.3 µM; against human MC5R [1] it was 6 µM; at human MC3R, 3.05 µM. For the same compound, the EC50 at human MC5R [2] was > 10 µM.

As for `CC1=C(/C=C/C(C)=C/C=C/C(C)=C\C(=O)O)C(C)(C)CCC1` [isotretinoin, 13-cis-retinoic acid], in the experiment on sebum excretion, the “reduction of sebum excretion” value is “up to 90%”.

In the case of `CC[C@H](CN1CC[C@@H](CNC(=O)c2ccc3cc(Cl)ccc3c2)N[C@@H](CCC(=O)N2CCCCC2)C1=O)c1ccccc1` [Compound 66, 6-chloro-N-(((3S,5S)-2-oxo-3-(3-oxo-3-(piperidin-1-yl)propyl)-1-((S)-2-phenylbutyl)-1,4-diazepan-5-yl)methyl)-2-naphthamide], the IC50 on human MC5R (hMC5R) (setting [3]) is 0.05 µM; on human MC5R (hMC5R) (setting [4]), < 0.1 µM; at human MC1R, > 10 µM; on human MC4R, > 10 µM; on human MC5R [1], 0.6 µM; on human MC3R it was 4.96 µM. Further, the EC50 on human MC5R [2] was > 10 µM.

With `NC(=O)CC[C@@H]1N[C@H](CNC(=O)c2ccc3ccccc3c2)CCN(CC(c2ccccc2)c2ccccc2)C1=O` [Compound 52, N-(((3S,5S)-3-(3-amino-3-oxopropyl)-1-(2,2-diphenylethyl)-2-oxo-1,4-diazepan-5-yl)methyl)-2-naphthamide], the half-maximal inhibitory concentration (IC50) at human MC5R (hMC5R) (setting [4]) is < 1 µM.

Consider `CC[C@H](CN1CC[C@@H](CNC(=O)c2ccc3cc(Cl)ccc3c2)N[C@@H](CCOCc2ccccc2)C1=O)c1ccccc1` [Compound 78, N-(((3S,5S)-3-(2-(benzyloxy)ethyl)-2-oxo-1-((S)-2-phenylbutyl)-1,4-diazepan-5-yl)methyl)-6-chloro-2-naphthamide], for which the IC50 on human MC5R (hMC5R) (setting [4]) was < 10 µM.

Turning to `O=C(NC[C@@H]1CCN(CC(c2ccccc2)c2ccccc2)C(=O)[C@H](Cc2ccccc2N2CCCCC2)N1)c1ccc2ccccc2c1` [Compound 71, N-(((3S,5S)-1-(2,2-diphenylethyl)-2-oxo-3-(2-(piperidin-1-yl)benzyl)-1,4-diazepan-5-yl)methyl)-2-naphthamide], the IC50 on human MC5R (hMC5R) (setting [4]) is < 10 µM.

Consider `CC[C@H](CN1CC[C@@H](CNC(=O)c2ccc3cc(Cl)ccc3c2)N[C@@H](CCOC)C1=O)c1ccccc1` [Compound 77, 6-chloro-N-(((3S,5S)-3-(2-methoxyethyl)-2-oxo-1-((S)-2-phenylbutyl)-1,4-diazepan-5-yl)methyl)-2-naphthamide], for which the IC50 on human MC5R (hMC5R) (setting [4]) is < 0.1 µM.
